Experiments:
[1] = biological target: T1, hCB1 (Homo sapiens, UniProt P21554); assay: Lance Ultra cAMP accumulation assay (inhibition of forskolin-stimulated cAMP), CHO cells; format: cell-based; parameters: expressed in transfected cells; conditions: hCB1-expressing cells
Description: The inhibition of forskolin-stimulated cAMP accumulation assays was carried out using PerkinElmer’s Lance Ultra cAMP kit following the manufacturer’s protocol. In brief, CHO cells stably expressing human CB1R were harvested by incubation with Versene (ThermoFisher Scientific, Waltham, MA) for 10 min, washed once with Hank’s Balanced Salt Solution, and resuspended in stimulation buffer at ~200 cells/μL density. The ligands at eight different concentrations (0.001–10,000 nM) in stimulation buffer (5 μL) containing forskolin (2 μM final concentration) were added to a 384-well plate followed by the cell suspension (5 μL; ~1000 cells/well). The plate was incubated for 30 min at room temperature. Eu-cAMP tracer (5 μL) and Ulight-anti-cAMP (5 μL) working solutions were then added to each well, and the plate was incubated at room temperature for an additional 60 min. Results were measured on a Perkin-Elmer EnVision plate reader. The EC50 values were determined by nonlinear regression analysis using Prism software (GraphPad Software, Inc., San Diego, CA) and are expressed as the mean of three experiments, each performed in triplicate.

[2] = biological target: T1, hCB1; assay: bioSens-All ebBRET effector biosensor signaling profiling, HEK293; format: cell-based; parameters: host or cells: HEK293 (HEK293SL clone), transient
Description: ebBRET-based effector membrane translocation biosensor assays were conducted at Domain Therapeutics NA Inc. (Montreal, QC, Canada) as previously described. […] HEK293 cells were maintained in Dulbecco’s Modified Eagle Medium (DMEM) (Wisent) supplemented with 1% penicillin- streptomycin (Wisent) and 10% (or 2 % for transfection) fetal bovine serum (Wisent) at 37°C with 5% CO2. All biosensor-coding plasmids and related information are the property of Domain Therapeutics NA Inc. The total amount of transfected DNA was adjusted and kept constant at 1 μg per mL of cell culture to be transfected using salmon sperm DNA (Invitrogen) as ‘carrier’ DNA, PEI (polyethylenimine 25 kDa linear, PolyScience) and DNA (3:1 ml PEI:mg DNA ratio) were first diluted separately in 150 mM NaCl then mixed and incubated for at least 20 minutes at room temperature to allow for the formation of DNA/PEI complexes. During the incubation, HEK293 cells were detached, counted, and re-suspended in maintenance medium to a 350,000 cells per mL density. At the end of the incubation period, the DNA/PEI mixture was added to the cells. Cells were finally distributed in 96-well plates (White Opaque 96-well /Microplates, Greiner) at a density of 35,000 cells per well. Forty-eight hours post-transfection, medium was aspirated and replaced with 100 μl of Hank’s Balanced Salt Solution buffer (HBSS) (Wisent) per well using 450-Select TS Biotek plate washer. After 60 min incubation in this medium, 10 μL of 10 μM e-Coelenterazine Prolume Purple (Methoxy e-CTZ) (Nanolight) was added to each well for a final concentration of 1 μM immediately followed by addition of increasing concentrations of the test compounds to each well using the HP D300 digital dispenser (Tecan). All compounds were assayed at 22 concentrations with each biosensor after a 10-minute room temperature incubation period. […] All BRET ratios were standardized using the universal BRET (uBRET) equation: uBRET=BRETratio-A/B-A×10,000 where A is the BRET ratio obtained from transfection of negative control and B is the BRET ratio obtained from transfection of positive control. […] The data were analyzed using the four-parameter logistic non-linear regression model in GraphPad Prism 9.1 and data were presented as means ± CIs of 1–4 independent experiments.
The SEM was calculated for the logEmax/EC50 ratios using the following equation: SEM=σ/n where σ is the standard deviation, and n is the number of experiments.

[3] = biological target: T2, CB1 (Rattus norvegicus, UniProt P20272); assay: Radioligand competition binding with [3H]-CP-55,940, rat brain membranes; conditions: for Ki: rCB1 binding Ki [95% CI], [3H]-CP-55,940 competition, rat brain membranes; for Emax: maximal radioligand displacement, read-out: rCB1 binding Emax [SEM]
T2 construct: membrane preparations from rat brain (source of CB1); tissue Bioivt RAT00BRAINMZN; host or cells: rat brain
T2 sequence (P20272 whole entry): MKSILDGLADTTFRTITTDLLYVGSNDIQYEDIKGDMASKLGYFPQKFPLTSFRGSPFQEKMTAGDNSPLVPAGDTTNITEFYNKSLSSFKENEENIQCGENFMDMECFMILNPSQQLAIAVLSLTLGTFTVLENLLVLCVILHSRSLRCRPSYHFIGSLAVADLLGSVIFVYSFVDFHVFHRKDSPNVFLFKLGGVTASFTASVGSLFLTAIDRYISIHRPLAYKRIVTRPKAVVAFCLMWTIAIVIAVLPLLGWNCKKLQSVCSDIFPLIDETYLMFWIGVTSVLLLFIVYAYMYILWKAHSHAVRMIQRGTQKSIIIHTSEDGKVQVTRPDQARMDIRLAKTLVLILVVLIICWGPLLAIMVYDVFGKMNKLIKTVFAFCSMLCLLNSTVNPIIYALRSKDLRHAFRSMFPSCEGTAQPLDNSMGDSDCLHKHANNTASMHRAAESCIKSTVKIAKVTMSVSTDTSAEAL
Description: The results were analyzed using nonlinear regression to determine the IC50 and Ki values for each ligand (Prism by GraphPad Software, Inc., San Diego, CA). The Ki values are expressed as the mean of two to three experiments each performed in triplicate.

[4] = biological target: T3, hCB2 (Homo sapiens, UniProt P34972); assay: Tango β-arrestin-2 recruitment assay, HTLA cells; format: cell-based; parameters: expressed in transfected cells; host or cells: HTLA (transient); conditions: for Emax: HTLA, read-out: hCB2 Tango ß-arrestin recruitment Emax [95% CI]
T3 sequence (P34972 whole entry): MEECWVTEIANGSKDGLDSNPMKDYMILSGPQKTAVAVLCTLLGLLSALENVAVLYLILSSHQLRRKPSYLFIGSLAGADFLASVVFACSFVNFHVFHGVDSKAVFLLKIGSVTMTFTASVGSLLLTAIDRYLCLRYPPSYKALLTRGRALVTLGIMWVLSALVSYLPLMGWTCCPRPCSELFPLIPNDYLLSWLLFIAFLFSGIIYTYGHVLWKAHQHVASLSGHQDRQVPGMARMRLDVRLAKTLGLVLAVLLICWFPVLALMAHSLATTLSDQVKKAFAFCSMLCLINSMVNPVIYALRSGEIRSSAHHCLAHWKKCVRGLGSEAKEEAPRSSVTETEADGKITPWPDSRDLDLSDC
Description: (§1) The Tango β-arrestin-2 recruitment assays were performed as described. In brief, HTLA cells were transiently transfected with human CB1R or CB2R Tango DNA construct overnight in DMEM supplemented with 10 % FBS, 100 μg ml−1 streptomycin and 100 U ml−1 penicillin. The transfected cells were then plated into poly-L-lysine-coated 384-well white clear-bottom cell culture plates in DMEM containing 1% dialysed FBS at a density of 10,000–15,000 cells per well. After incubation for 6 h, the plates were added with drug solutions prepared in DMEM containing 1% dialysed FBS for overnight incubation. On the day of assay, medium and drug solutions were removed and 20 μl per well of BrightGlo reagent (Promega) was added. The plates were further incubated for 20 min at room temperature and counted using the Wallac TriLux Microbeta counter (PerkinElmer). The results were analysed using GraphPad Prism 9.1. Each experiment was performed in triplicate and functional […] values were determined from the mean of three independent experiments.

[5] = biological target: T3, hCB2; assay: TRUPATH BRET2 GoA dissociation assay, HEK293T; format: cell-based; parameters: expressed in transfected cells; host or cells: HEK293T (transient); conditions: HEK-293T, read-out: hCB2 BRET2 + GoA Emax [95% CI]
Description: […]. GoA dissociation BRET2 assays were performed as previously described with minor modifications. In brief, HEK293T cells were co-transfected overnight with human CB2 receptor, GαoA-Rluc, Gβ3, and Gγ9-GFP2 constructs. After 18–24 hours, the transfected cells were seeded into poly-L-lysine-coated 384-well white clear-bottom cell culture plates at a density of 15,000–20,000 cells and incubated with DMEM containing 1% dialyzed FBS, 100 U mL−1 of penicillin and 100 μg ml−1 of streptomycin for another 24 hours. The next day, the medium was aspirated and washed once with 20 μL of assay buffer (1× HBSS, 20 mM HEPES, 0.1% BSA, pH 7.4). Then, 20 μL of drug buffer containing coelenterazine 400a (Nanolight Technology) at 5 μM final concentration was added to each well and incubated for 5 minutes, followed by the addition of 10 μL of 3X designated drug buffer for 5 minutes. Then, 10 μL of 4X final concentrations of ligands were added for 5 minutes. […] BRET ratio was computed as the ratio of the GFP2 emission to RLuc8 emission. […] Each experiment was performed in triplicate and functional IC50 values were determined from the mean of four independent experiments.

[6] = biological target: T1, hCB1; assay: Tango β-arrestin-2 recruitment assay, HTLA cells; format: cell-based; parameters: expressed in transfected cells
Description: as §1

[7] = biological target: T4, CB1R (Homo sapiens, UniProt P21554, C107A/C139A/C149A/C238A/C355A/C382A/C386A/C415A/C431A/C449A/C98A/R336C); assay: Bimane fluorescence of TM6-labeled minimal cysteine CB1R; format: biochemical; conditions: 10 μM ligand; apo 459 nm
T4 construct: N-terminal FLAG tag and C-terminal histidine tag was added to human full-length CB1; FLAG (N); histidine tag (C); made in house; host or cells: Spodoptera frugiperda Sf9 (baculovirus)
T4 sequence (P21554 whole entry C98A/C107A/C139A/C149A/C238A/R336C/C355A/C382A/C386A/C415A/C431A/C449A): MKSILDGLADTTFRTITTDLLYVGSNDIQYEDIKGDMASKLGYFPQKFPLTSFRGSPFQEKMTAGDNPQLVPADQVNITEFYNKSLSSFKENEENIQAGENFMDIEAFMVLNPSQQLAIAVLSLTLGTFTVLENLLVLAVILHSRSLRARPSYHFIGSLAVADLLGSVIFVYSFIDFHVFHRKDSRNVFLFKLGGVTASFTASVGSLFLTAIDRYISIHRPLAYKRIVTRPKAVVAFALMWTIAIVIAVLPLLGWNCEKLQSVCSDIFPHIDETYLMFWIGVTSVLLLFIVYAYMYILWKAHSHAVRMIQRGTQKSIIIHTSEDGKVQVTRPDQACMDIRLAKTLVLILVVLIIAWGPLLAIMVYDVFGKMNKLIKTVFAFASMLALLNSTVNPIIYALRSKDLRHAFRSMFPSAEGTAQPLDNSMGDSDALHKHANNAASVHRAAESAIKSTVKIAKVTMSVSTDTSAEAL
Description: A minimal cysteine version of CB1R was generated[73] where all the cysteine residues (except C256 and C264) were mutated to alanine. […] Excess label was removed using size exclusion chromatography on a Superdex 200 10/300 Increase column in 20 mM HEPES pH 7.5, 100 mM NaCl and 0.01% MNG/0.001% CHS. Bimane-labeled CB1R at […] was incubated with ligands (10 μM) for one hour at room temperature. Fluorescence data was collected at room temperature in a 150 μL cuvette with a FluorEssence v3.8 software on a Fluorolog instrument (Horiba) in photon-counting mode. Bimane fluorescence was measured by excitation at 370 nm with excitation and emission bandwidth passes of 4 nm. The emission spectra were recorded from 410 to 510 nm with 1 nm increment and 0.1 s integration time.

[8] = biological target: T1, hCB1; assay: DiscoverX PathHunter β-arrestin-2 recruitment assay; format: cell-based; conditions: hCB1 DiscoverX ß-arrestin recruitment EC50 [95% CI]
Description: PathHunter cell lines (CHO-K1 lineage expressing hCB1) were expanded from freezer stocks according to standard procedures. Cells were seeded in a total volume of 20 μL into white walled, 384-well microplates and incubated at 37°C for the appropriate time prior to testing. For agonist determination, cells were incubated with sample to induce response. Intermediate dilution of sample stocks was performed to generate 5X sample in assay buffer. 5 μL of 5X sample was added to cells and incubated at 37°C or room temperature for 90 to 180 minutes. Vehicle concentration was 1%. […] Microplates were read following signal generation with a PerkinElmer EnvisionTM instrument for chemiluminescent signal detection. Compound activity was analyzed using CBIS data analysis suite (ChemInnovation, CA).
The data were analyzed in GraphPad Prism 9.1 using “dose–response-stimulation log(agonist) versus response (four parameters)” and data were presented as EC50 or pEC50 ± CIs of one independent experiment in duplicate.

[9] = biological target: T1, hCB1; assay: Cerep HTRF cAMP inhibition assay, hCB1 CHO-K1 cells; format: cell-based
Description: The hCB1 CHO-K1 cells are suspended in HBSS buffer (Invitrogen) complemented with 20 mM HEPES (pH 7.4), then distributed in microplates at a density of 5.103 cells/well in the presence of either of the following: HBSS (basal control), the reference agonist at 30 nM (stimulated control) or the test compounds. […] Following 30 min incubation at 37°C, the cells are lysed, and the fluorescence acceptor (D2-labeled cAMP) and fluorescence donor (anti-cAMP antibody labeled with europium cryptate) are added. […] Each measurement was done in triplicate.

[10] = biological target: T3, hCB2; assay: Cerep cAMP assay; format: cell-based
[11] = HEK293, read-out: hCB1 Gi1 Emax [95% CI]
[12] = HEK293, read-out: hCB1 GoB Emax [95% CI]
[13] = HEK293, read-out: hCB1 Gz Emax [95% CI]

T1 sequence (P21554 whole entry): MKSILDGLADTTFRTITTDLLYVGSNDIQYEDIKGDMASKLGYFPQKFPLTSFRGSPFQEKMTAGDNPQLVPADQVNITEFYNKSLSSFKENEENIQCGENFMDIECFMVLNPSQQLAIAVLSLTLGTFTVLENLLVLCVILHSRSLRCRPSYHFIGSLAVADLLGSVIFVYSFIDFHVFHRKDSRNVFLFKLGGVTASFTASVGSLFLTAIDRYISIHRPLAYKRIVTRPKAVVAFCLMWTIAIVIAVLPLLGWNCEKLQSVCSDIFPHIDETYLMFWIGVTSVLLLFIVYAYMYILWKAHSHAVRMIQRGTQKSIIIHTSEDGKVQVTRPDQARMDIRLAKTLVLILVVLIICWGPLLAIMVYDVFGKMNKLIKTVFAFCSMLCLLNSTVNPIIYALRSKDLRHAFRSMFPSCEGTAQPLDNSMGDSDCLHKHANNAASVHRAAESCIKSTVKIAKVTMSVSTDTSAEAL

Compound	functional efficacy (decrease in forskolin stimulated cAMP) [1]	Emax [2, 11]	Emax [2, 12]	Emax [2, 13]	EC50 ([2]; hCB1 GoB EC50 [95% CI])	EC50 ([2]; hCB1 GoB pEC50 [95% CI])	EC50 ([2]; hCB1 Gz EC50 [95% CI])	Ki [3]	EC50 [4]	Emax [4]	EC50 ([2]; hCB1 Gi1 pEC50 [95% CI])	Emax [3]	EC50 [6]	EC50 ([2]; hCB1 Gi1 EC50 [95% CI])	other results
COC(=O)C(NC(=O)c1cc(C)n(-c2cccc(F)c2)n1)c1cccs1 (stereo not shown) [‘51486]	modest agonism	73%	74%	130%	711 nM	631 nM	1120 nM	731 nM							EC50 ([2]; hCB1 Gi1 EC50 [95% CI], Gi1 sensor): 849 nM; LE ([3]; ligand efficiency): 0.32; LLE ([3]; lipophilic ligand efficiency): 3.1
COC(=O)[C@@H]1[C@@H]2CCC[C@@H]2CN1C(=O)c1cc(C)n(-c2cccc(C(F)(F)F)c2)n1 [‘6439]		95%	100%	162%	60.9 nM	63.1 nM	339 nM	251 nM	338 nM	14%	63.1 nM	106%	> 10 µM		Emax [5]: 81%
Cn1nc(-c2nnc(C(C)(C)Oc3ccc(Cl)cc3)o2)c2ccccc2c1=O [‘0450]	modest agonism	49%	36%		2510 nM			691 nM			50100 nM			56300 nM	
COC(=O)[C@@H](NC(=O)c1nn(Cc2ccc(F)cc2)c2ccccc12)C(C)(C)C [MDMB-fubinaca, reference compound]															bimane spectrum λmax [7]: 465 nm
COC(=O)[C@@H]1[C@@H]2CCC[C@@H]2CN1C(=O)c1cc(C)n(-c2cccc(Cl)c2)n1 [‘10010]		74%	71%	144%	801 nM	794 nM	1400 nM	1200 nM	556 nM	18%		101%	> 10 µM	814 nM	% [3H]-CP-55,940 displacement (mean) from single point screen ([3]; screens at 10 μM (white cells), 1 μM (orange) or 300 nM (green), cell colours not visible): 33.86%
Cc1cc(C(=O)N2CC3(CCC3)C2C2CCCO2)nn1-c1cccc(C(F)(F)F)c1 (stereo not shown) [‘3737]								173 nM	1500 nM	9%		112%	> 10 µM		EC50 [8]: > 10 µM; EC50 [9]: 326 nM; Emax ([9]; CHO-K1, read-out: hCB1 Cerep cAMP Emax [95% CI]): 99%; EC50 [10]: 4.3 nM; Emax ([10]; read-out: hCB2 Cerep cAMP Emax [95% CI]): 45%

— publication doi:10.1101/2023.02.27.530254, “Large library docking for cannabinoid-1 receptor agonists with reduced side effects” (bioRxiv, 2024)
